Assay results reported in patent US10221129B2, “Inhibitors of human immunodeficiency virus replication” (ViiV HEALTHCARE UK (NO.5) LIMITED, priority 2015, dated 2019).

Legend:
[1] = Compound cytotoxicity, XTT-based colorimetric assay; type: cell-based; details: human, uninfected MT2 cells, day 4, XTT
Procedure: Compound cytotoxicity and the corresponding CC50 values were determined using the same protocol as described in the antiviral assay except that uninfected cells were used. Cytotoxicity was assessed on day 4 in uninfected MT2 cells by using a XTT (2,3-bis[2-Methoxy-4-nitro-5-sulfophenyl]-2H-tetrazolium-5-carboxyanilide inner salt)-based colorimetric assay (Sigma-Aldrich, St Louis, Mo.).

[2] = tested on: recombinant NL4-3 virus (nef section replaced with Renilla luciferase gene) in MT-2 cells; assay: HIV cell culture assay (antiviral activity, luciferase readout); type: cell-based; details: Renilla, NL43, MT-2 cells infected for 4-5 days with recombinant NL4-3 Renilla luciferase virus
Procedure: HIV cell culture assay—MT-2 cells, 293T cells and the proviral DNA clone of NL4-3 virus were obtained from the NIH AIDS Research and Reference Reagent Program. MT-2 cells were propagated in RPMI 1640 media supplemented with 10% heat inactivated fetal bovine serum (FBS), 100 jag/ml penicillin G and up to 100 units/mL streptomycin. The 293T cells were propagated in DMEM media supplemented with 10% heat inactivated FBS, 100 μg/mL penicillin G and 100 μg/mL streptomycin. A recombinant NL4-3 proviral clone, in which a section of the nef gene was replaced with the Renilla luciferase gene, was used to make the reference virus used in these studies. The recombinant virus was prepared through transfection of the recombinant NL4-3 proviral clone into 293T cells using Transit-293 Transfection Reagent from Mirus Bio LLC (Madison, Wis.). Supernatant was harvested after 2-3 days and the amount of virus present was titered in MT-2 cells using luciferase enzyme activity as a marker by measuring luciferase enzyme activity. Luciferase was quantitated using the EnduRen Live Cell Substrate from Promega (Madison, Wis.). Antiviral activities of compounds toward the recombinant virus were quantified by measuring luciferase activity in MT-2 cells infected for 4-5 days with the recombinant virus in the presence of serial dilutions of the compound.
(Johnson V A, Byington R T. Infectivity Assay. In Techniques in HIV Research. ed. Aldovini A, Walker B D. 71-76. New York: Stockton Press. 1990).

In the case of `COc1ccc(N(C)C(=O)[C@H](Cc2ccccc2)NC(=O)NS(=O)(=O)Nc2ccc(C(F)(F)F)cc2)cc1` [CA-28], the CC50 at 4 days [1] is reported as greater than 100000 nM and the EC50 [2] is reported as 50 nM.

Molecule `COc1ccc(N(C)C(=O)[C@H](Cc2ccccc2)NC(=O)NS(=O)(=O)Nc2ccc(-c3ccccc3)cc2)cc1` [CA-29] has a CC50 at 4 days [1] greater than 33300 nM and an EC50 [2] of 3260 nM.

`COc1ccc(N(C)C(=O)[C@H](Cc2ccccc2)NC(=O)NS(=O)(=O)Nc2cccc(Cl)c2Cl)cc1` [CA-30] showed a CC50 at 4 days [1] greater than 100000 nM and an EC50 [2] of 80 nM.

`COc1ccc(N(C)C(=O)[C@H](Cc2ccccc2)NC(=O)NS(=O)(=O)Nc2ccccc2-c2ccccc2)cc1` [CA-31] gave a CC50 at 4 days [1] greater than 33300 nM and an EC50 [2] of 1170 nM.

With `COc1ccc(N(C)C(=O)[C@H](Cc2ccccc2)NC(=O)NS(=O)(=O)Nc2ccc(OCc3ccccc3)cc2)cc1` [CA-32] the CC50 at 4 days [1] was greater than 33300 nM and the EC50 [2] was 980 nM.

With `COc1ccc(N(C)C(=O)[C@H](Cc2ccccc2)NC(=O)NS(=O)(=O)Nc2ccccc2Oc2ccccc2)cc1` [CA-33] the CC50 at 4 days [1] was greater than 33300 nM and the EC50 [2] was 2040 nM.

`COc1ccc(N(C)C(=O)[C@H](Cc2ccccc2)NC(=O)NS(=O)(=O)Nc2ccc(OC(F)(F)F)cc2)cc1` [CA-34] showed a CC50 at 4 days [1] greater than 33300 nM and an EC50 [2] of 180 nM.

For `COc1ccc(N(C)C(=O)[C@H](Cc2ccccc2)NC(=O)NS(=O)(=O)Nc2cccc(OC(F)(F)F)c2)cc1` [CA-35], the CC50 at 4 days [1] was 30300 nM and the EC50 [2] was 380 nM.

Work on `COc1ccc(N(C)C(=O)[C@H](Cc2ccccc2)NC(=O)NS(=O)(=O)Nc2cccc(Oc3ccccc3)c2)cc1` [CA-36] yielded a CC50 at 4 days [1] greater than 33300 nM and an EC50 [2] of 200 nM.

For `COc1ccc(N(C)C(=O)[C@H](Cc2ccccc2)NC(=O)NS(=O)(=O)Nc2cccc(-c3ccccc3)c2)cc1` [CA-37], the CC50 at 4 days [1] was greater than 33300 nM and the EC50 [2] was 1200 nM.

`COc1ccc(N(C)C(=O)[C@H](Cc2ccccc2)NC(=O)NS(=O)(=O)Nc2ccc(-c3cnco3)cc2)cc1` [CA-38] gave a CC50 at 4 days [1] greater than 100000 nM and an EC50 [2] of 250 nM.

In the case of `COc1ccc(N(C)C(=O)[C@H](Cc2ccccc2)NC(=O)NS(=O)(=O)Nc2ccc(Cc3ccncc3)cc2)cc1` [CA-39], the CC50 at 4 days [1] is reported as greater than 100000 nM and the EC50 [2] is reported as 330 nM.

`COc1ccc(N(C)C(=O)[C@H](Cc2ccccc2)NC(=O)NS(=O)(=O)Nc2ccc(OC(C)C)cc2)cc1` [CA-40] gave a CC50 at 4 days [1] greater than 100000 nM and an EC50 [2] of 220 nM.

`COc1ccc(N(C)C(=O)[C@H](Cc2ccccc2)NC(=O)NS(=O)(=O)Nc2cccc(C(C)(C)C)c2)cc1` [CA-41] gave a CC50 at 4 days [1] greater than 33300 nM and an EC50 [2] of 260 nM.

Work on `COc1ccc(N(C)C(=O)[C@H](Cc2ccccc2)NC(=O)NS(=O)(=O)Nc2ccccc2NC(C)=O)cc1` [CA-42] yielded a CC50 at 4 days [1] greater than 100000 nM and an EC50 [2] of 4120 nM.

With `COc1ccc(N(C)C(=O)[C@H](Cc2ccccc2)NC(=O)NS(=O)(=O)Nc2ccc(S(=O)(=O)N3CCCC3)cc2)cc1` [CA-43] the CC50 at 4 days [1] was greater than 100000 nM and the EC50 [2] was 300 nM.

For `COc1ccc(N(C)C(=O)[C@H](Cc2ccccc2)NC(=O)NS(=O)(=O)Nc2ccc(S(=O)(=O)N3CCOCC3)cc2)cc1` [CA-44], the CC50 at 4 days [1] was greater than 100000 nM and the EC50 [2] was 620 nM.

With `COc1ccc(N(C)C(=O)[C@H](Cc2ccccc2)NC(=O)NS(=O)(=O)Nc2ccc(-n3cccc3)cc2)cc1` [CA-45] the CC50 at 4 days [1] was greater than 33300 nM and the EC50 [2] was 520 nM.

In the case of `COc1ccc(N(C)C(=O)[C@H](Cc2ccccc2)NC(=O)NS(=O)(=O)Nc2cccc(NS(C)(=O)=O)c2)cc1` [CA-46], the CC50 at 4 days [1] is reported as greater than 100000 nM and the EC50 [2] is reported as 11600 nM.

`COc1ccc(N(C)C(=O)[C@H](Cc2ccccc2)NC(=O)NS(=O)(=O)Nc2cccc(S(=O)(=O)N3CCOCC3)c2)cc1` [CA-47] showed a CC50 at 4 days [1] greater than 100000 nM and an EC50 [2] of 2140 nM.

Work on `COc1ccc(N(C)C(=O)[C@H](Cc2ccccc2)NC(=O)NS(=O)(=O)Nc2ccc3c(c2)CS(=O)(=O)C3)cc1` [CA-48] yielded a CC50 at 4 days [1] greater than 100000 nM and an EC50 [2] of 260 nM.

Molecule `COc1ccc(N(C)C(=O)[C@H](Cc2ccccc2)NC(=O)NS(=O)(=O)Nc2cc(Cl)cc(Cl)c2)cc1` [CA-49] has a CC50 at 4 days [1] greater than 33300 nM and an EC50 [2] of 180 nM.

Work on `COc1ccc(N(C)C(=O)[C@H](Cc2ccccc2)NC(=O)NS(=O)(=O)Nc2ccc(Cl)cc2Cl)cc1` [CA-50] yielded a CC50 at 4 days [1] greater than 100000 nM and an EC50 [2] of 110 nM.

In the case of `COc1ccc(N(C)C(=O)[C@H](Cc2ccccc2)NC(=O)NS(=O)(=O)NCC(=O)N2CCCC2)cc1` [CA-51], the CC50 at 4 days [1] is reported as greater than 100000 nM and the EC50 [2] is reported as 4590 nM.

`COc1ccc(N(C)C(=O)[C@H](Cc2ccccc2)NC(=O)NS(=O)(=O)NCC(=O)N(C)C)cc1` [CA-52] gave a CC50 at 4 days [1] greater than 100000 nM and an EC50 [2] of 910 nM.

`COc1ccc(N(C)C(=O)[C@H](Cc2ccccc2)NC(=O)NS(=O)(=O)N2CCc3cc(OC)cc(C)c32)cc1` [CA-56] gave a CC50 at 4 days [1] greater than 100000 nM and an EC50 [2] of 1310 nM.
